Data: US10239840B2, “Benzoazepine derivatives” (ViiV HEALTHCARE UK LIMITED, priority 2015, dated 2019)

Test system: HIV
Test: MT4 assay, antiviral HIV activity
Format: cell-based
Details: MT-4 cells (HTLV-1 transformed), read-out at 96 hours with cell titer glo
Procedure: Antiviral HIV activity and cytotoxicity values for compounds of the invention from Table 1 were measured in parallel in the HTLV-1 transformed cell line MT-4 based on the method previously described (Hazen et al., 2007, In vitro antiviral activity of the novel, tyrosyl-based human immunodeficiency virus (HIV) type 1 protease inhibitor brecanavir (GW640385) in combination with other antiretrovirals and against a panel of protease inhibitor-resistant HIV (Hazen et al., “In vitro antiviral activity of the novel, tyrosyl-based human immunodeficiency virus (HIV) type 1 protease inhibitor brecanavir (GW640385) in combination with other antiretrovirals and against a panel of protease inhibitor-resistant HIV”, Antimicrob. Agents Chemother. 2007, 51: 3147-3154; and Pauwels et al., “Sensitive and rapid assay on MT-4 cells for the detection of antiviral compounds against the AIDS virus”, J. of Virological Methods 1987, 16: 171-185).
Luciferase activity was measured 96 hours later by adding a cell titer glo (Promega, Madison, Wis.). Percent inhibition of cell protection data was plotted relative to no compound control. Under the same condition, cytotoxicity of the compounds was determined using cell titer Glo™ (Promega, Madison, Wis.). IC50s were determined from a 10 point dose response curve using 3-4-fold serial dilution for each compound, which spans a concentration range >1000 fold.
These values are plotted against the molar compound concentrations using the standard four parameter logistic equation: y=((Vmax*x^n)/(K^n+x^n)+Y2
Y2=minimum γ n=slope factor
Vmax=maximum γ x=compound concentration [M]

SMILES	IC50 [µM]
Cc1c(-c2c(C)c3c(c(C)c2[C@H](OC(C)(C)C)C(=O)O)CCN(C(=O)c2cccc(F)c2)CC3)cc(Cl)c2c1CCCO2 (atropisomer, axis not shown; (M)) [Example 1, (S)-2-(tert-butoxy)-2-((M)-8-(8-chloro-5-methylchroman-6-yl)-3-(3-fluorobenzoyl)-6,9-dimethyl-2,3,4,5-tetrahydro-1H-benzo[d]azepin-7-yl)acetic Acid]	0.027
Cc1c(-c2c(C)c3c(c(C)c2[C@H](OC(C)(C)C)C(=O)O)CCN(C(=O)c2cccc(F)c2)CC3)cc(F)c2c1CCCO2 (atropisomer, axis not shown; (M)) [Example 5, (2S)-2-(tert-butoxy)-2-((M)-8-(8-fluoro-5-methylchroman-6-yl)-3-(3-fluorobenzoyl)-6,9-dimethyl-2,3,4,5-tetrahydro-1H-benzo[d]azepin-7-yl)acetic Acid]	0.005
Cc1c(-c2c(C)c3c(c(C)c2[C@H](OC(C)(C)C)C(=O)O)CCN(C(=O)CC(C)(C)C)CC3)cc(F)c2c1CCCO2 (atropisomer, axis not shown; (M)) [Example 6, (S)-2-(tert-butoxy)-2-((M)-3-(3,3-dimethylbutanoyl)-8-(8-fluoro-5-methylchroman-6-yl)-6,9-dimethyl-2,3,4,5-tetrahydro-1H-benzo[d]azepin-7-yl)acetic Acid]	0.06
COc1ccc(F)cc1C(=O)N1CCc2c(C)c(-c3cc(F)c4c(c3C)CCCO4)c([C@H](OC(C)(C)C)C(=O)O)c(C)c2CC1 (atropisomer, axis not shown; (M)) [Example 7, (S)-2-(tert-butoxy)-2-((M)-3-(5-fluoro-2-methoxybenzoyl)-8-(8-fluoro-5-methylchroman-6-yl)-6,9-dimethyl-2,3,4,5-tetrahydro-1H-benzo[d]azepin-7-yl)acetic Acid]	0.005
COc1ccc(C)cc1C(=O)N1CCc2c(C)c(-c3cc(F)c4c(c3C)CCCO4)c([C@H](OC(C)(C)C)C(=O)O)c(C)c2CC1 (atropisomer, axis not shown; (M)) [Example 8, (S)-2-(tert-butoxy)-2-((M)-8-(8-fluoro-5-methylchroman-6-yl)-3-(2-methoxy-5-methylbenzoyl)-6,9-dimethyl-2,3,4,5-tetrahydro-1H-benzo[d]azepin-7-yl)acetic Acid]	0.004
COc1ccc(C(=O)N2CCc3c(C)c(-c4cc(F)c5c(c4C)CCCO5)c([C@H](OC(C)(C)C)C(=O)O)c(C)c3CC2)cc1C (atropisomer, axis not shown; (M)) [Example 9, (S)-2-(tert-butoxy)-2-((M)-8-(8-fluoro-5-methylchroman-6-yl)-3-(4-methoxy-3-methylbenzoyl)-6,9-dimethyl-2,3,4,5-tetrahydro-1H-benzo[d]azepin-7-yl)acetic Acid]	0.014
COc1c(F)cccc1C(=O)N1CCc2c(C)c(-c3cc(F)c4c(c3C)CCCO4)c([C@H](OC(C)(C)C)C(=O)O)c(C)c2CC1 (atropisomer, axis not shown; (M)) [Example 10, (S)-2-(tert-butoxy)-2-((M)-3-(3-fluoro-2-methoxybenzoyl)-8-(8-fluoro-5-methylchroman-6-yl)-6,9-dimethyl-2,3,4,5-tetrahydro-1H-benzo[d]azepin-7-yl)acetic Acid]	0.005
Cc1c(-c2c(C)c3c(c(C)c2[C@H](OC(C)(C)C)C(=O)O)CCN(C(=O)c2cccc4c2OCC4)CC3)cc(F)c2c1CCCO2 (atropisomer, axis not shown; (M)) [Example 11, (S)-2-(tert-butoxy)-2-((M)-3-(2,3-dihydrobenzofuran-7-carbonyl)-8-(8-fluoro-5-methylchroman-6-yl)-6,9-dimethyl-2,3,4,5-tetrahydro-1H-benzo[d]azepin-7-yl)acetic Acid]	0.009
Cc1c(-c2c(C)c3c(c(C)c2[C@H](OC(C)(C)C)C(=O)O)CCN(C(=O)C2CCCCC2)CC3)cc(F)c2c1CCCO2 (atropisomer, axis not shown; (M)) [Example 12, (S)-2-(tert-butoxy)-2-((M)-3-(cyclohexanecarbonyl)-8-(8-fluoro-5-methylchroman-6-yl)-6,9-dimethyl-2,3,4,5-tetrahydro-1H-benzo[d]azepin-7-yl)acetic Acid]	0.019
COc1cc(C(=O)N2CCc3c(C)c(-c4cc(F)c5c(c4C)CCCO5)c([C@H](OC(C)(C)C)C(=O)O)c(C)c3CC2)ccc1F (atropisomer, axis not shown; (M)) [Example 13, (S)-2-(tert-butoxy)-2-((M)-3-(4-fluoro-3-methoxybenzoyl)-8-(8-fluoro-5-methylchroman-6-yl)-6,9-dimethyl-2,3,4,5-tetrahydro-1H-benzo[d]azepin-7-yl)acetic Acid]	0.004
Cc1c(-c2c(C)c3c(c(C)c2[C@H](OC(C)(C)C)C(=O)O)CCN(C(=O)C(=O)N2CCCCC2)CC3)cc(F)c2c1CCCO2 (atropisomer, axis not shown; (M)) [Example 14, (S)-2-(tert-butoxy)-2-((M)-8-(8-fluoro-5-methylchroman-6-yl)-6,9-dimethyl-3-(2-oxo-2-(piperidin-1-yl)acetyl)-2,3,4,5-tetrahydro-1H-benzo[d]azepin-7-yl)acetic Acid]	0.017
Cc1c(-c2c(C)c3c(c(C)c2[C@H](OC(C)(C)C)C(=O)O)CCN(Cc2cccc(F)c2)CC3)cc(F)c2c1CCCO2 (atropisomer, axis not shown; (M)) [Example 15, (S)-2-(tert-butoxy)-2-((M)-8-(8-fluoro-5-methylchroman-6-yl)-3-(3-fluorobenzyl)-6,9-dimethyl-2,3,4,5-tetrahydro-1H-benzo[d]azepin-7-yl)acetic Acid]	0.077
Cc1c(-c2c(C)c3c(c(C)c2[C@H](OC(C)(C)C)C(=O)O)CCN(CCC2CCCCC2)CC3)cc(F)c2c1CCCO2 (atropisomer, axis not shown; (M)) [Example 16, (2S)-2-(tert-butoxy)-2-((M)-3-(2-cyclohexylethyl)-8-(8-fluoro-5-methylchroman-6-yl)-6,9-dimethyl-2,3,4,5-tetrahydro-1H-benzo[d]azepin-7-yl)acetic Acid]	0.013
Cc1c(-c2c(C)c3c(c(C)c2[C@H](OC(C)(C)C)C(=O)O)CCN(CC2CCCCC2)CC3)cc(F)c2c1CCCO2 (atropisomer, axis not shown; (M)) [Example 17, (S)-2-(tert-butoxy)-2-((M)-3-(cyclohexylmethyl)-8-(8-fluoro-5-methylchroman-6-yl)-6,9-dimethyl-2,3,4,5-tetrahydro-1H-benzo[d]azepin-7-yl)acetic Acid]	0.01
Cc1c(-c2c(C)c3c(c(C)c2[C@H](OC(C)(C)C)C(=O)O)CCN(C2CCCCC2)CC3)cc(F)c2c1CCCO2 (atropisomer, axis not shown; (M)) [Example 18, (2S)-2-(tert-butoxy)-2-((M)-3-cyclohexyl-8-(8-fluoro-5-methylchroman-6-yl)-6,9-dimethyl-2,3,4,5-tetrahydro-1H-benzo[d]azepin-7-yl)acetic Acid]	0.013
Cc1c(-c2c(C)c3c(c(C)c2[C@H](OC(C)(C)C)C(=O)O)CCN(c2ccccc2)CC3)cc(F)c2c1CCCO2 (atropisomer, axis not shown; (M)) [Example 19, (2S)-2-(tert-butoxy)-2-((M)-8-(8-fluoro-5-methylchroman-6-yl)-6,9-dimethyl-3-phenyl-2,3,4,5-tetrahydro-1H-benzo[d]azepin-7-yl)acetic Acid]	0.092
Cc1c(-c2c(C)c3c(c(C)c2[C@H](OC(C)(C)C)C(=O)O)CCN(S(=O)(=O)C2CCCCC2)CC3)cc(F)c2c1CCCO2 (atropisomer, axis not shown; (M)) [Example 20, (2S)-2-(tert-butoxy)-2-((M)-3-(cyclohexylsulfonyl)-8-(8-fluoro-5-methylchroman-6-yl)-6,9-dimethyl-2,3,4,5-tetrahydro-1H-benzo[d]azepin-7-yl)acetic Acid]	0.042
Cc1c(-c2c(C)c3c(c(C)c2[C@H](OC(C)(C)C)C(=O)O)CCN(S(=O)(=O)N2CCCCC2)CC3)cc(F)c2c1CCCO2 (atropisomer, axis not shown; (M)) [Example 21, (2S)-2-(tert-butoxy)-2-((M)-8-(8-fluoro-5-methylchroman-6-yl)-6,9-dimethyl-3-(piperidin-1-ylsulfonyl)-2,3,4,5-tetrahydro-1H-benzo[d]azepin-7-yl)acetic Acid]	0.008
Cc1c(-c2c(C)c3c(c(C)c2[C@H](OC(C)(C)C)C(=O)O)CCN(C(=O)N2CCCCC2)CC3)cc(F)c2c1CCCO2 (atropisomer, axis not shown; (M)) [Example 22, (2S)-2-(tert-butoxy)-2-((M)-8-(8-fluoro-5-methylchroman-6-yl)-6,9-dimethyl-3-(piperidine-1-carbonyl)-2,3,4,5-tetrahydro-1H-benzo[d]azepin-7-yl)acetic Acid]	0.009
COc1ccc(-c2c(C)c3c(c(C)c2[C@H](OC(C)(C)C)C(=O)O)CCN(C(=O)c2cccc(F)c2)CC3)cc1 [Example 2, (S)-2-(tert-butoxy)-2-(3-(3-fluorobenzoyl)-8-(4-methoxyphenyl)-6,9-dimethyl-2,3,4,5-tetrahydro-1H-benzo[d]azepin-7-yl)acetic Acid]	0.076
Cc1c2c(c(C)c([C@H](OC(C)(C)C)C(=O)O)c1-c1ccccc1)CCN(C(=O)c1cccc(F)c1)CC2 [Example 3, (S)-2-(tert-butoxy)-2-(3-(3-fluorobenzoyl)-6,9-dimethyl-8-phenyl-2,3,4,5-tetrahydro-1H-benzo[d]azepin-7-yl)acetic Acid]	0.219
